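A five-concentration, 48-hour dose response in 96-well plates underlies each endpoint, interpolated linearly between surrounding concentrations. GI50 = concentration required for 50% inhibition of growth.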 Active and inactive are the calls of the source. No stated cut-off is given here; in the data, active = GI50 up to about 1.1 µM and inactive = higher.
Legend:
Assay in all cases: NCI-60 cell line screen, 48 h
NCI-H226 = test system: NCI-H226
COLO 205 = test system: COLO 205
SNB-75 = test system: SNB-75
RPMI-8226 = test system: RPMI-8226
CCRF-CEM = test system: CCRF-CEM
KM-20L2 = test system: KM-20L2
BT-549 = test system: BT-549
HCT-15 = test system: HCT-15
EKVX = test system: EKVX
TK-10 = test system: TK-10
UACC-62 = test system: UACC-62
U-251 = test system: U-251
MCF7 = test system: MCF7
SW-620 = test system: SW-620
HT-29 = test system: HT-29
Malme-3M = test system: Malme-3M
HCC 2998 = test system: HCC 2998
IGROV-1 = test system: IGROV-1
HOP-62 = test system: HOP-62
HOP-92 = test system: HOP-92

SMILES	GI50 (NCI-H226)	GI50 (COLO 205)	GI50 (SNB-75)	GI50 (RPMI-8226)	GI50 (CCRF-CEM)	GI50 (KM-20L2)	GI50 (BT-549)	GI50 (HCT-15) [µM]	GI50 (EKVX)	GI50 (TK-10)	GI50 (UACC-62)	GI50 (U-251)	GI50 (MCF7)	GI50 (SW-620)	GI50 (HT-29)	GI50 (Malme-3M)	GI50 (HCC 2998)	GI50 (IGROV-1)	GI50 (HOP-62)	GI50 (HOP-92)
COc1ccc2nc3ccccc3c(NCCN(C)CCCl)c2c1	0.608 µM (active)	0.299 µM (active)	1.04 µM (active)	0.247 µM (active)	0.353 µM (active)	0.438 µM (active)	0.9 µM (active)	0.515	1.51 µM (inactive)	1.62 µM (inactive)	0.681 µM (active)	0.541 µM (active)	0.587 µM (active)	0.175 µM (active)	0.377 µM (active)	0.399 µM (active)	0.67 µM (active)	0.469 µM (active)	0.869 µM (active)	0.622 µM (active)
CCOc1ccc(/N=C/c2ccnc3ccccc23)cc1	73.6 µM (inactive)	81.3 µM (inactive)	29.2 µM (inactive)	6.53 µM (inactive)	2.63 µM (inactive)	43.7 µM (inactive)	34.4 µM (inactive)	11.5	> 93.1 µM (inactive)	92.3 µM (inactive)	60.8 µM (inactive)	32.7 µM (inactive)	5.98 µM (inactive)	4.56 µM (inactive)	27.3 µM (inactive)	75.9 µM (inactive)	32.4 µM (inactive)	43 µM (inactive)	54.6 µM (inactive)	49.8 µM (inactive)
CCOC(=O)/N=c1\ss/c(=N\C(=S)N(C)C)n1-c1ccccc1	> 10 µM (inactive)	3.19 µM (inactive)	6.03 µM (inactive)	7.48 µM (inactive)	29.6 µM (inactive)	> 10 µM (inactive)	–	> 10	> 100 µM (inactive)	63 µM (inactive)	72.3 µM (inactive)	19.4 µM (inactive)	–	> 10 µM (inactive)	3.17 µM (inactive)	> 10 µM (inactive)	> 10 µM (inactive)	4.11 µM (inactive)	42.5 µM (inactive)	25.8 µM (inactive)
CC1=C(/C=C/C(C)=C/C=C/C(C)=C/C=C/C=C(C)/C=C/C=C(C)/C=C/C2=C(C)C(=O)C(O)CC2(C)C)C(C)(C)CC(O)C1=O (stereo not drawn)	> 100 µM (inactive)	> 100 µM (inactive)	> 100 µM (inactive)	> 100 µM (inactive)	> 100 µM (inactive)	> 100 µM (inactive)	–	> 100	> 100 µM (inactive)	> 100 µM (inactive)	> 100 µM (inactive)	> 100 µM (inactive)	–	> 100 µM (inactive)	> 100 µM (inactive)	> 100 µM (inactive)	> 100 µM (inactive)	> 100 µM (inactive)	> 100 µM (inactive)	> 100 µM (inactive)
CN(C)C(=N/O)/C(=N\O)N(C)C	15.6 µM (inactive)	–	> 100 µM (inactive)	> 100 µM (inactive)	> 100 µM (inactive)	> 100 µM (inactive)	–	> 100	> 100 µM (inactive)	> 100 µM (inactive)	> 100 µM (inactive)	> 100 µM (inactive)	–	> 100 µM (inactive)	> 100 µM (inactive)	> 100 µM (inactive)	> 100 µM (inactive)	> 100 µM (inactive)	> 100 µM (inactive)	> 100 µM (inactive)
C=C1COC(O)(C2OCOC(C3CC(=O)NC(=O)C3)C2O)C1C (stereo not drawn)	0.00619 µM (active)	0.00244 µM (active)	0.00494 µM (active)	0.00269 µM (active)	0.00106 µM (active)	0.00281 µM (active)	0.00565 µM (active)	0.00478	0.00689 µM (active)	0.00895 µM (active)	0.00429 µM (active)	0.00341 µM (active)	0.00268 µM (active)	0.0043 µM (active)	0.00278 µM (active)	0.00221 µM (active)	0.00278 µM (active)	0.00562 µM (active)	0.00622 µM (active)	0.00244 µM (active)
CCC1(O)C(=O)OCc2c1cc1n(c2=O)Cc2cc3ccc(C=O)cc3nc2-1 (stereo not drawn)	1.58 µM (inactive)	9.08 µM (inactive)	1.36 µM (inactive)	2.79 µM (inactive)	0.0431 µM (active)	5.68 µM (inactive)	2.28 µM (inactive)	6.08	19.1 µM (inactive)	54.3 µM (inactive)	0.566 µM (active)	0.637 µM (active)	0.335 µM (active)	1.03 µM (active)	4.9 µM (inactive)	4.33 µM (inactive)	4.62 µM (inactive)	8.09 µM (inactive)	0.294 µM (active)	11.1 µM (inactive)
COc1ccc(/C=N/N=C(\N)NO)cc1F	5.42 µM (inactive)	10.5 µM (inactive)	27.4 µM (inactive)	28.4 µM (inactive)	33.7 µM (inactive)	9.02 µM (inactive)	–	18.6	8.13 µM (inactive)	43 µM (inactive)	12.9 µM (inactive)	25 µM (inactive)	–	41.2 µM (inactive)	12.9 µM (inactive)	31 µM (inactive)	11.4 µM (inactive)	31.3 µM (inactive)	20.5 µM (inactive)	22.2 µM (inactive)
CCCC/C=C/C=C/C=C/CCCCCCCC(=O)OCC(COC(=O)CCCCCCC/C=C/C1C=CC(CCCC)C(C(=O)O)C1C(=O)O)OC(=O)CCCCCCC/C=C/C=C/C=C/CCCC.OCCNCO (stereo not drawn)	17.5 µM (inactive)	15.8 µM (inactive)	19.2 µM (inactive)	3.78 µM (inactive)	11.9 µM (inactive)	20.9 µM (inactive)	–	16.2	19 µM (inactive)	19.1 µM (inactive)	14.8 µM (inactive)	–	–	4.05 µM (inactive)	16.7 µM (inactive)	20.9 µM (inactive)	23.4 µM (inactive)	19.8 µM (inactive)	18.6 µM (inactive)	23.8 µM (inactive)
c1ccc2c3nc(C4CCCC4)nc-3c(NC3CCCC3)[nH]c2c1	24.7 µM (inactive)	19 µM (inactive)	66.1 µM (inactive)	21.2 µM (inactive)	5.89 µM (inactive)	5 µM (inactive)	–	8.49	57.4 µM (inactive)	35.2 µM (inactive)	14 µM (inactive)	3.23 µM (inactive)	–	5.43 µM (inactive)	4.6 µM (inactive)	16.6 µM (inactive)	6.76 µM (inactive)	20.3 µM (inactive)	19.1 µM (inactive)	19.3 µM (inactive)
O=c1c2cc3ccccc3n2c(=O)c2cc3ccccc3n12	> 100 µM (inactive)	–	> 100 µM (inactive)	> 100 µM (inactive)	> 100 µM (inactive)	> 100 µM (inactive)	–	> 100	> 100 µM (inactive)	> 100 µM (inactive)	> 100 µM (inactive)	> 100 µM (inactive)	–	> 100 µM (inactive)	> 100 µM (inactive)	> 100 µM (inactive)	> 100 µM (inactive)	–	–	> 100 µM (inactive)
O=C(CC1=Nc2nnc(-c3nnc4n3C(=O)C(CC(=O)c3cccnc3)=N4)n2C1=O)c1cccnc1	> 100 µM (inactive)	> 100 µM (inactive)	> 100 µM (inactive)	> 100 µM (inactive)	> 100 µM (inactive)	> 100 µM (inactive)	–	> 100	–	> 100 µM (inactive)	> 100 µM (inactive)	> 100 µM (inactive)	–	> 100 µM (inactive)	> 100 µM (inactive)	> 100 µM (inactive)	> 100 µM (inactive)	> 100 µM (inactive)	> 100 µM (inactive)	> 100 µM (inactive)

Source: ChEMBL document CHEMBL1201862, “PubChem BioAssay data set” (2004)
